Like-named read-outs stand apart in the source and are kept apart here.
Test: Single escalating dose IV infusion pharmacokinetics in healthy volunteers (noncompartmental)
Format: in vivo, human
Conditions: human, plasma; for concentration at 24.5 h: read-out: concentration at 24.5 hours after the start of infusion; for concentration at 12.5 h: Time 12.50 h
Description: Forty-five subjects have enrolled in the study.
Analysis of plasma concentration versus time data for calculation of standard pharmacokinetic (PK) parameters following intravenous infusion administration was conducted using Phoenix WinNonlin version 6.3 using a nominal infusion duration and scheduled blood sampling times. Random subject numbers were assigned by the bioanalytical laboratory to retain the blind.
(§1) Analysis of plasma concentration versus time data for calculation of standard pharmacokinetic (PK) parameters following intravenous infusion administration was conducted using Phoenix WinNonlin version 6.3 using a nominal infusion duration and scheduled blood sampling times.
as §1

[1] = both sexes, iv, 48 mg/m2, Cohort 4, 48 mg/m^2 IV, r6-8=Subjects 1-3,r10=Mean,r12=Min,r13=Median,r14=Max,r16=Geometric Mean
[2] = both sexes, iv, 48 mg/m^2, Compound 1 Concentration, Cohort 4, 48 mg/m^2 IV, r7-9=Subjects 1-3,r11=Mean,r13=Min,r14=Median,r15=Max,r17=Geometric Mean
[3] = both sexes, iv, 96 mg/m^2, Cohort 5, 96 mg/m^2, 30-minute IV infusion, noncompartmental, subjects 1-6, Mean, Min, Median, Max, Geometric Mean
[4] = both sexes, iv, 96 mg/m^2, Compound 1 Concentration, Cohort 5, 96 mg/m^2 IV, r7-12=Subjects 1-6,r14=Mean,r16=Min,r17=Median,r18=Max,r20=Geometric Mean

## CN1CCN(c2ccc(Nc3ncc4cc5n(c4n3)C3(CCCCC3)CNC5=O)nc2)CC1 [Compound 1, 2′-((5-(4-methylpiperazin-1-yl)pyridin-2-yl)amino)-7′,8′-dihydro-6′H-spiro[cyclohexane-1,9′-pyrazino[1′,2′:1,5]pyrrolo[2,3-d]pyrimidin]-6′-one]
Both sexes, iv, 48 mg/m2, Cohort 4, 48 mg/m^2 IV, mean, read-out: Cmax averaged
  Cmax: 224 ng/mL
Both sexes, iv, 48 mg/m2, Cohort 4, 48 mg/m^2 IV, median, read-out: median Tmax
  Tmax: 0.5 h
[1]
  AUC(0-t): 453 ng·h/mL
  MRT inf: 8.08 h
Both sexes, iv, 48 mg/m2, Cohort 4, 48 mg/m^2 IV, r6-8=Subjects 1-3,r10=Mean,r12=Min,r13=Median,r14=Max,r16=Geometric Mean, read-out: AUCinf
  AUC(0-inf): 499 ng·h/mL
Both sexes, iv, 48 mg/m2, Cohort 4, 48 mg/m^2 IV, r6-8=Subjects 1-3,r10=Mean,r12=Min,r13=Median,r14=Max,r16=Geometric Mean, read-out: Cmax
  Cmax: 224 ng/mL
Both sexes, iv, 48 mg/m2, Cohort 4, 48 mg/m^2 IV, r6-8=Subjects 1-3,r10=Mean,r12=Min,r13=Median,r14=Max,r16=Geometric Mean, read-out: Tmax
  Tmax: 0.417 h
Both sexes, iv, 48 mg/m2, Cohort 4, 48 mg/m^2 IV, range over subjects, read-out: Half-lives range
  half-life: 7.24 to 10.9 h
Both sexes, iv, 48 mg/m^2, Cohort 4, 48 mg/m^2 IV, one subject measurable, read-out: concentration at 72 hours after the EOI
  concentration at 72 h: 0.76 ng/mL
Both sexes, iv, 48 mg/m^2, Cohort 4, 48 mg/m^2 IV, range over 3 subjects
  concentration at 24.5 h: 2.08 to 4.66 ng/mL
[2]
  concentration at 0.25 h: 192 ng/mL
  concentration at 12.5 h: 8.36 ng/mL
Both sexes, iv, 48 mg/m^2, Compound 1 Concentration, Cohort 4, 48 mg/m^2 IV, Time 0.75 h, r7-9=Subjects 1-3,r11=Mean,r13=Min,r14=Median,r15=Max,r17=Geometric Mean
  concentration at 0.75 h: 107 ng/mL
Both sexes, iv, 48 mg/m^2, Compound 1 Concentration, Cohort 4, 48 mg/m^2 IV, Time 1.00 h, r7-9=Subjects 1-3,r11=Mean,r13=Min,r14=Median,r15=Max,r17=Geometric Mean
  concentration at 1 h: 81.9 ng/mL
Both sexes, iv, 48 mg/m^2, Compound 1 Concentration, Cohort 4, 48 mg/m^2 IV, Time 2.50 h, r7-9=Subjects 1-3,r11=Mean,r13=Min,r14=Median,r15=Max,r17=Geometric Mean
  concentration at 2.5 h: 34.2 ng/mL
Both sexes, iv, 48 mg/m^2, Compound 1 Concentration, Cohort 4, 48 mg/m^2 IV, Time 3.50 h, r7-9=Subjects 1-3,r11=Mean,r13=Min,r14=Median,r15=Max,r17=Geometric Mean
  concentration at 3.5 h: 27.6 ng/mL
Both sexes, iv, 48 mg/m^2, Compound 1 Concentration, Cohort 4, 48 mg/m^2 IV, Time 6.50 h, r7-9=Subjects 1-3,r11=Mean,r13=Min,r14=Median,r15=Max,r17=Geometric Mean
  concentration at 6.5 h: 17 ng/mL
Both sexes, iv, 48 mg/m^2, Compound 1 Concentration, Cohort 4, 48 mg/m^2 IV, Time 8.50 h, r7-9=Subjects 1-3,r11=Mean,r13=Min,r14=Median,r15=Max,r17=Geometric Mean
  concentration at 8.5 h: 12.1 ng/mL
Both sexes, iv, 96 mg/m2, Cohort 5, 96 mg/m^2 IV, mean, read-out: AUCinf averaged
  AUC(0-inf): 1320 ng·h/mL
Both sexes, iv, 96 mg/m2, Cohort 5, 96 mg/m^2 IV, mean, read-out: Cmax averaged
  Cmax: 900 ng/mL
Both sexes, iv, 96 mg/m2, Cohort 5, 96 mg/m^2 IV, mean, read-out: Half-lives averaged (converted)
  half-life: 8.62 h
Both sexes, iv, 96 mg/m2, Cohort 5, 96 mg/m^2 IV, median, read-out: median Tmax
  Tmax: 0.375 h
Both sexes, iv, 96 mg/m2, Cohort 5, 96 mg/m^2 IV, range over subjects, read-out: Half-lives range
  half-life: 6.97 to 10.9 h
[3]
  AUC(0-t): 1530 ng·h/mL
  MRT inf: 4.36 h
Both sexes, iv, 96 mg/m^2, Cohort 5, 96 mg/m^2, 30-minute IV infusion, noncompartmental, subjects 1-6, Mean, Min, Median, Max, Geometric Mean, read-out: AUCinf
  AUC(0-inf): 1590 ng·h/mL
Both sexes, iv, 96 mg/m^2, Cohort 5, 96 mg/m^2, 30-minute IV infusion, noncompartmental, subjects 1-6, Mean, Min, Median, Max, Geometric Mean, read-out: Cmax
  Cmax: 949 ng/mL
Both sexes, iv, 96 mg/m^2, Cohort 5, 96 mg/m^2, 30-minute IV infusion, noncompartmental, subjects 1-6, Mean, Min, Median, Max, Geometric Mean, read-out: Tmax
  Tmax: 0.5 h
Both sexes, iv, 96 mg/m^2, Cohort 5, 96 mg/m^2, 30-minute IV infusion, noncompartmental, subjects 1-6, Mean, Min, Median, Max, Geometric Mean, read-out: t½ (converted)
  half-life: 7.11 h
Both sexes, iv, 96 mg/m^2, Cohort 5, 96 mg/m^2 IV, range over subjects
  concentration at 24.5 h: 3.96 to 9.59 ng/mL
[4]
  concentration at 0.25 h: 843 ng/mL
  concentration at 12.5 h: 11.9 ng/mL
Both sexes, iv, 96 mg/m^2, Compound 1 Concentration, Cohort 5, 96 mg/m^2 IV, Time 0.50 h, r7-12=Subjects 1-6,r14=Mean,r16=Min,r17=Median,r18=Max,r20=Geometric Mean
  concentration at 0.5 h: 992 ng/mL
both, intravenous, […]2, Cohort 6, […]^2, 0-24.5 hr data, noncompartmental, subjects 1-6, Mean, Min, Median, Max, Geometric Mean, read-out: Tmax
  Tmax: 0.5 h
both, intravenous, […]2, Cohort 6, […]^2, 0-[…] data, noncompartmental, subjects 1-6, Mean, Min, Median, Max, Geometric Mean, read-out: Tmax
  Tmax: 0.5 h
both, intravenous, […]2, Cohort 7, […]^2, N = 12, Geo. Mean, read-out: t1/2 (converted)
  half-life: 14.5 h
both, intravenous, […]2, Cohort 7, […]^2, N = 12, Geo. Mean, read-out: tmax
  Tmax: 0.36 h
both, intravenous, […]2, Cohort 7, […]^2, N = 12, min-max, read-out: t1/2 (converted)
  half-life: 11.9 to 17.3 h
both, intravenous, […]2, Cohort 7, […]^2, N = 12, min-max, read-out: tmax
  Tmax: 0.25 to 0.48 h
both, intravenous, […]^2, Cohort 6 + 7, […]^2, N = 18, Geo. Mean, read-out: t1/2 (converted)
  half-life: 14.5 h
both, intravenous, […]^2, Cohort 6 + 7, […]^2, N = 18, Geo. Mean, read-out: tmax
  Tmax: 0.37 h
both, intravenous, […]^2, Cohort 6 + 7, […]^2, N = 18, min-max, read-out: t1/2 (converted)
  half-life: 11.9 to 17.3 h
both, intravenous, […]^2, Cohort 6 + 7, […]^2, N = 18, min-max, read-out: tmax
  Tmax: 0.25 to 0.48 h
both, iv, […]2, Cohort 6, […]^2 IV, 0-24.5 hr data, mean, read-out: Half-lives averaged (converted)
  half-life: 7.87 h
both, iv, […]2, Cohort 6, […]^2 IV, 0-24.5 hr data, range over subjects, read-out: Half-lives range
  half-life: 5.78 to 8.79 h
both, iv, […]2, Cohort 6, […]^2 IV, 0-[…] data, mean, read-out: Half-lives averaging (converted)
  half-life: 18 h
both, iv, […]2, Cohort 6, […]^2 IV, 0-[…] data, range over subjects, read-out: Half-lives range
  half-life: 16.9 to 20.1 h
both, iv, […]2, Cohort 6, […]^2 IV, median, read-out: median Tmax
  Tmax: 0.5 h

Source: patent US20160220569A1, “CDK4/6 Inhibitor Dosage Formulations For The Protection Of Hematopoietic Stem And Progenitor Cells During Chemotherapy” (G1 Therapeutics, Inc., priority 2015, published 2016)
